One compound from patent US7420059B2, “HMG-CoA reductase inhibitors and method” (Bristol-Myers Squibb Company, priority 2003, dated 2008) can be followed below.

Each structure is given as a SMILES string.

For orientation: melting point means the temperature of the solid-liquid transition. The compound `CC(C)c1nc2c(c(-c3ccc(F)cc3)c1/C=C/[C@@H](O)C[C@@H](O)CC(=O)O)CCCN2S(C)(=O)=O` [Example 22, (E)-(3R,5S)-7-[4-(4-Fluorophenyl)-2-isopropyl-8-methanesulfonyl-5,6,7,8-tetrahydro-[1,8]naphthyridin-3-yl]-3,5-dihydroxyhept-6-enoic Acid] yielded a melting point of 184 to 186 °C.
